Measured values published in patent US20240092835A1, “NOVEL PEPTIDES CAPABLE OF ALTERING NK CELL ACTIVITY” (Massachusetts Institute of Technology, priority 2022, published 2024).

Experiments:
NKG2A+/NKG2C− NK cells = experiment: NK cell activation markers in NKG2A+/NKG2C- NK cells incubated with peptide and K562 expressing HLA-E (inhibition); assay type: cell-based, human; conditions: for percentage of CCL3+ NK cells / percentage of CD107a+ NK cells / percentage of IFNG+ NK cells / percentage of TNF+ NK cells: NKG2A+/NKG2C- NK cells, K562/HLA-E
Summary of the method: (§1)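 HLA-E-expressing K562 cells incubated with peptides from human or human cytomegalovirus proteomes, then with NK cell subsets sorted by NKG2A/NKG2C status. Read-out is percent of cells positive for surface markers; a rise indicates activation, a fall inhibition.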

NKG2A−/NKG2C+ NK cells = experiment: NK cell activation markers in NKG2A-/NKG2C+ NK cells incubated with peptide and K562 expressing HLA-E (activation); assay type: cell-based, human; conditions: for percentage of CCL3+ NK cells / percentage of CD107+ NK cells / percentage of IFNG+ NK cells / percentage of TNF+ NK cells: NKG2A-/NKG2C+ NK cells, K562/HLA-E
Summary of the method: as §1

NKG2A−/NKG2C− NK cells = experiment: NK cell activation markers in control NKG2A-/NKG2C- NK cells incubated with peptide and K562 expressing HLA-E; assay type: cell-based, human
Summary of the method: as §1

HLA-E = biological target: T1, HLA-E (Homo sapiens, UniProt P13747); experiment: HLA-E surface stabilization assay with RMA-S/HLA-E cells; assay type: cell-based; conditions: 30 μM peptide, 16 hours, anti-HLA-E antibody
T1 construct: expressed in transfected cells; host or cells: RMA-S/HLA-E cells (antigen processing-defective lymphoma cell line)
T1 sequence (P13747 22-358): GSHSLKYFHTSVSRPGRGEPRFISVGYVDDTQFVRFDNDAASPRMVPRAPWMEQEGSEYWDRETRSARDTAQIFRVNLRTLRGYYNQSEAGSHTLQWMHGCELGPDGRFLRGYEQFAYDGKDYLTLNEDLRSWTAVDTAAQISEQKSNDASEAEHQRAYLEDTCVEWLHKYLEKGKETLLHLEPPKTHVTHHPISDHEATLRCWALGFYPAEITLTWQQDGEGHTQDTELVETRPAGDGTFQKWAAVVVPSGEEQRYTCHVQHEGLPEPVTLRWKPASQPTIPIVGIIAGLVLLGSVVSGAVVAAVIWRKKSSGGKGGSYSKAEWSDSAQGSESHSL
T1 sequence (P61769 21-119 partner): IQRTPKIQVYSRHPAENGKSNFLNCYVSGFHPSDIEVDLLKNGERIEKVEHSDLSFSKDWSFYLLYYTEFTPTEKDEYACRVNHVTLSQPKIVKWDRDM
Experimental: HLA-E surface expression was assessed by measuring geometric mean fluorescence intensity (GeoMFI) in RMA-S cells following immunofluorescence staining with an anti-HLA-E antibody (Table 14). Increased GeoMFI was indicative of increased HLA-E surface expression stability following novel peptide exposures (FIG. 3).

[1] = K562 expressing HLA-E, CD107a, IFNG, TNF, CCL3

“VMPGRTLCF [human11, peptide TACR3 226-234 derived from the human proteome]” was tested, and the “effect on NKG2A+/NKG2C− NK cell inhibition (in words)” value (NKG2A+/NKG2C− NK cells; [1]) was “strong inhibitory”, the “percentage of CCL3+ NK cells” value (NKG2A+/NKG2C− NK cells; Trial 1) was 4.05% and the “percentage of CD107a+ NK cells” value (NKG2A+/NKG2C− NK cells; Trial 1) was 0.35%. The “percentage of IFNG+ NK cells” value (NKG2A+/NKG2C− NK cells; Trial 1) was 0.13%, the “percentage of TNF+ NK cells” value (NKG2A+/NKG2C− NK cells; Trial 1) was 0.05% and the “percentage of CCL3+ NK cells” value (NKG2A+/NKG2C− NK cells; Trial 2) was 7.9%. The “percentage of CD107a+ NK cells” value (NKG2A+/NKG2C− NK cells; Trial 2) was 1.08%, the “percentage of IFNG+ NK cells” value (NKG2A+/NKG2C− NK cells; Trial 2) was 0.53% and the “percentage of TNF+ NK cells” value (NKG2A+/NKG2C− NK cells; Trial 2) was 0.21%. For the same sequence, the “percentage of CCL3+ NK cells” value (NKG2A+/NKG2C− NK cells; Trial 3) was 3.93%, the “percentage of CD107a+ NK cells” value (NKG2A+/NKG2C− NK cells; Trial 3) was 1.25% and the “percentage of IFNG+ NK cells” value (NKG2A+/NKG2C− NK cells; Trial 3) was 0.6%. The “percentage of TNF+ NK cells” value (NKG2A+/NKG2C− NK cells; Trial 3) was 0.35%, the “percentage of CCL3+ NK cells” value (NKG2A+/NKG2C− NK cells; Trial 4) was 1.77% and the “percentage of CD107a+ NK cells” value (NKG2A+/NKG2C− NK cells; Trial 4) was 1.09%. For the same sequence, the “percentage of IFNG+ NK cells” value (NKG2A+/NKG2C− NK cells; Trial 4) was 0.29%, the “percentage of TNF+ NK cells” value (NKG2A+/NKG2C− NK cells; Trial 4) was 0.23% and the “percentage of CCL3+ NK cells” value (NKG2A+/NKG2C− NK cells; Trial 5) was 2.68%. For the same sequence, the “percentage of CD107a+ NK cells” value (NKG2A+/NKG2C− NK cells; Trial 5) was 0.66%, the “percentage of IFNG+ NK cells” value (NKG2A+/NKG2C− NK cells; Trial 5) was 0.09% and the “percentage of TNF+ NK cells” value (NKG2A+/NKG2C− NK cells; Trial 5) was 0%. The “percentage of CCL3+ NK cells” value (NKG2A+/NKG2C− NK cells; Trial 6) was 1.02%, the “percentage of CD107a+ NK cells” value (NKG2A+/NKG2C− NK cells; Trial 6) was 1.02% and the “percentage of IFNG+ NK cells” value (NKG2A+/NKG2C− NK cells; Trial 6) was 0.05%. For the same sequence, the “percentage of TNF+ NK cells” value (NKG2A+/NKG2C− NK cells; Trial 6) was 0%, the “effect on NKG2A−/NKG2C+ NK cell activation (in words)” value (NKG2A−/NKG2C+ NK cells; [1]) was “strong activating effects” and the “percentage of CCL3+ NK cells” value (NKG2A−/NKG2C+ NK cells; Trial 1) was 72.1%. For the same sequence, the “percentage of CD107+ NK cells” value (NKG2A−/NKG2C+ NK cells; Trial 1) was 70.6%, the “percentage of IFNG+ NK cells” value (NKG2A−/NKG2C+ NK cells; Trial 1) was 63.1% and the “percentage of TNF+ NK cells” value (NKG2A−/NKG2C+ NK cells; Trial 1) was 57.2%. The “percentage of CCL3+ NK cells” value (NKG2A−/NKG2C+ NK cells; Trial 2) was 83.5%, the “percentage of CD107+ NK cells” value (NKG2A−/NKG2C+ NK cells; Trial 2) was 79.9% and the “percentage of IFNG+ NK cells” value (NKG2A−/NKG2C+ NK cells; Trial 2) was 76.4%. The “percentage of TNF+ NK cells” value (NKG2A−/NKG2C+ NK cells; Trial 2) was 71.3%, the “percentage of CCL3+ NK cells” value (NKG2A−/NKG2C+ NK cells; Trial 3) was 80.8% and the “percentage of CD107+ NK cells” value (NKG2A−/NKG2C+ NK cells; Trial 3) was 81%. The “percentage of IFNG+ NK cells” value (NKG2A−/NKG2C+ NK cells; Trial 3) was 76.8%, the “percentage of TNF+ NK cells” value (NKG2A−/NKG2C+ NK cells; Trial 3) was 72% and the “percentage of CCL3+ NK cells” value (NKG2A−/NKG2C+ NK cells; Trial 4) was 65%. For the same sequence, the “percentage of CD107+ NK cells” value (NKG2A−/NKG2C+ NK cells; Trial 4) was 66.8%, the “percentage of IFNG+ NK cells” value (NKG2A−/NKG2C+ NK cells; Trial 4) was 59.4% and the “percentage of TNF+ NK cells” value (NKG2A−/NKG2C+ NK cells; Trial 4) was 53.6%. The “percentage of CCL3+ NK cells” value (NKG2A−/NKG2C+ NK cells; Trial 5) was 69.8%, the “percentage of CD107+ NK cells” value (NKG2A−/NKG2C+ NK cells; Trial 5) was 70.2% and the “percentage of IFNG+ NK cells” value (NKG2A−/NKG2C+ NK cells; Trial 5) was 65%. The “percentage of TNF+ NK cells” value (NKG2A−/NKG2C+ NK cells; Trial 5) was 62.5%, the “percentage of CCL3+ NK cells” value (NKG2A−/NKG2C+ NK cells; Trial 6) was 39.9% and the “percentage of CD107+ NK cells” value (NKG2A−/NKG2C+ NK cells; Trial 6) was 42.5%. For the same sequence, the “percentage of IFNG+ NK cells” value (NKG2A−/NKG2C+ NK cells; Trial 6) was 35.3%, the “percentage of TNF+ NK cells” value (NKG2A−/NKG2C+ NK cells; Trial 6) was 33.5% and the “percentage CCL3+ NK cells” value (NKG2A−/NKG2C− NK cells; Trial 1) was 27.1%. For the same sequence, the “percentage CD107+ NK cells” value (NKG2A−/NKG2C− NK cells; Trial 1) was 21.7%, the “percentage TNF+ NK cells” value (NKG2A−/NKG2C− NK cells; Trial 1) was 3.75% and the “percentage of IFNG+ NK cells” value (NKG2A−/NKG2C− NK cells; Trial 1) was 11.4%. For the same sequence, the “percentage CCL3+ NK cells” value (NKG2A−/NKG2C− NK cells; Trial 2) was 49.5%, the “percentage CD107+ NK cells” value (NKG2A−/NKG2C− NK cells; Trial 2) was 28.7% and the “percentage TNF+ NK cells” value (NKG2A−/NKG2C− NK cells; Trial 2) was 7.72%. The “percentage of IFNG+ NK cells” value (NKG2A−/NKG2C− NK cells; Trial 2) was 21.3%, the “percentage CCL3+ NK cells” value (NKG2A−/NKG2C− NK cells; Trial 3) was 44.1% and the “percentage CD107+ NK cells” value (NKG2A−/NKG2C− NK cells; Trial 3) was 38.6%. The “percentage TNF+ NK cells” value (NKG2A−/NKG2C− NK cells; Trial 3) was 14.8%, the “percentage of IFNG+ NK cells” value (NKG2A−/NKG2C− NK cells; Trial 3) was 33.5% and the “percentage CCL3+ NK cells” value (NKG2A−/NKG2C− NK cells; Trial 4) was 30.9%. For the same sequence, the “percentage CD107+ NK cells” value (NKG2A−/NKG2C− NK cells; Trial 4) was 28.9%, the “percentage TNF+ NK cells” value (NKG2A−/NKG2C− NK cells; Trial 4) was 9.48% and the “percentage of IFNG+ NK cells” value (NKG2A−/NKG2C− NK cells; Trial 4) was 18.5%. For the same sequence, the “percentage CCL3+ NK cells” value (NKG2A−/NKG2C− NK cells; Trial 5) was 18.3%, the “percentage CD107+ NK cells” value (NKG2A−/NKG2C− NK cells; Trial 5) was 14.9% and the “percentage TNF+ NK cells” value (NKG2A−/NKG2C− NK cells; Trial 5) was 3.82%. For the same sequence, the “percentage of IFNG+ NK cells” value (NKG2A−/NKG2C− NK cells; Trial 5) was 10.5%, the “percentage CCL3+ NK cells” value (NKG2A−/NKG2C− NK cells; Trial 6) was 13.7% and the “percentage CD107+ NK cells” value (NKG2A−/NKG2C− NK cells; Trial 6) was 14.8%. For the same sequence, the “percentage TNF+ NK cells” value (NKG2A−/NKG2C− NK cells; Trial 6) was 2.69%, the “percentage of IFNG+ NK cells” value (NKG2A−/NKG2C− NK cells; Trial 6) was 6.09% and the “HLA-E surface expression stability (GeoMFI)” value (HLA-E; Trial 1) was 3152 GeoMFI. For the same sequence, the “HLA-E surface expression stability (GeoMFI)” value (HLA-E; Trial 2) was 2914 GeoMFI, the “HLA-E surface expression stability (GeoMFI)” value (HLA-E; Trial 3) was 3432 GeoMFI and the “HLA-E surface expression stability (GeoMFI)” value (HLA-E; Trial 4) was 3610 GeoMFI.
